In patent US11814367B2, “Inhibitors of glycogen synthase 1 (GYS1) and methods of use thereof” (Maze Therapeutics, Inc., priority 2021, dated 2023) one finds IC50 data, which are given here for 19 molecules.

Experiment [1] deals with hGYS1 enzyme (recombinant hGYS1/GN1 protein) (Homo sapiens (Human), UniProt P13807). The experiment is described as follows: GYS1 coupled enzyme assay (PK/LDH). The class given is biochemical. The settings on record: hGYS1/GN1 50 nM, UDP-Glucose 0.8 mM, G6P 1 mM; geometric mean of at least 2 runs.
Experiment [2] deals with hGYS2 enzyme (recombinant hGYS2/GN1 protein) (Homo sapiens (Human), UniProt P54840). Nature of the experiment: GYS2 coupled enzyme assay (PK/LDH). The class given is biochemical. The following applies: geometric mean of at least 2 assay runs on separate days, read-out: Avg_IC50. A digest of the protocol:
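hGYS2/GN1 200 nM; UDP-Glc 2 mM; glycogen 0.2%; G6P 2 mM; PEP 2 mM, NADH 0.6 mM, PK/LDH 20 U/mL. 50 mM Tris pH 7.5, MgCl2, KCl, BSA, TCEP, 2.5% DMSO. Kinetic A340, 10 min. IC50 = geomean of ≥2 runs.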

The test system of experiment [3] is hGYS1 enzyme / glycogen synthesis in HeLa cells. The experiment is described as follows: GYS1 cell based assay (glycogen synthesis, Glucose-glo). The arrangement: species or system human. The following applies: 24 h incubation, 20 mM glucose, geometric mean of at least 2 runs. A digest of the protocol:
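HeLa cells starved 24 h in medium containing only 1× Glutamax were plated onto compound in medium with 20 mM glucose (1% DMSO final) for 24 h, 37 °C, 5% CO2. Acid lysates were Tris-quenched, glucoamylase-digested (pH 5.3, 1 h, 37 °C) and read by Glucose-glo luminescence. IC50 came from Hill fits, as geometric mean of ≥2 runs.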

Chain of hGYS1 enzyme (recombinant hGYS1/GN1 protein) (P13807 whole entry): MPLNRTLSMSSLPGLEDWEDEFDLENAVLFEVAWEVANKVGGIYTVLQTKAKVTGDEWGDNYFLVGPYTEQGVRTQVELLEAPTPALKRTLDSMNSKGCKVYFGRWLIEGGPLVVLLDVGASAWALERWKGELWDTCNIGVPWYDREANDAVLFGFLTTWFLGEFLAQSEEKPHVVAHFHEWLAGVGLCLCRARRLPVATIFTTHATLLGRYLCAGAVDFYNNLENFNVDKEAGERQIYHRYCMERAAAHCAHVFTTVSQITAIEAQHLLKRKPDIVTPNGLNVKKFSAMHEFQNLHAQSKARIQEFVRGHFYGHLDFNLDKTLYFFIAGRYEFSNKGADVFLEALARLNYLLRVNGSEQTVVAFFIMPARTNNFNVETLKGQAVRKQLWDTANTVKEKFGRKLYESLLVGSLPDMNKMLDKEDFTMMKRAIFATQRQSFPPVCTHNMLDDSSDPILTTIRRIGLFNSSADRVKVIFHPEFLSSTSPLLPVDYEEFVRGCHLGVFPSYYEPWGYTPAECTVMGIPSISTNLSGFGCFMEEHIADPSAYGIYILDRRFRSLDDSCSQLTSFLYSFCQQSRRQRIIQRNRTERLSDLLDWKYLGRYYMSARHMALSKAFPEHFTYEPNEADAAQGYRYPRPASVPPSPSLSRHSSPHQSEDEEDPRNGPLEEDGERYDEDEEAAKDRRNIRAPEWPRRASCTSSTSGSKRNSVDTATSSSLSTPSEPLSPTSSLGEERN
Chain of hGYS1 enzyme (recombinant hGYS1/GN1 protein) (P46976 whole entry partner): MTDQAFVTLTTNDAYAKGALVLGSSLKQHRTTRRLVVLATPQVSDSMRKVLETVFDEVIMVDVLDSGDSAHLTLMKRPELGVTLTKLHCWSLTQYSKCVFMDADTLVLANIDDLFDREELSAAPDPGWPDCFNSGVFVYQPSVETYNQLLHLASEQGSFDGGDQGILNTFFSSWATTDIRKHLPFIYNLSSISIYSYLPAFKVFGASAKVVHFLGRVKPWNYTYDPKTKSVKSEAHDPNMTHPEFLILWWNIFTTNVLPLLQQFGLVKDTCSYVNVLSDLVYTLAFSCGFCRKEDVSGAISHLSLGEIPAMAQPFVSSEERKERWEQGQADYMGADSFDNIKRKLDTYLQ
Chain of hGYS2 enzyme (recombinant hGYS2/GN1 protein) (P54840 whole entry): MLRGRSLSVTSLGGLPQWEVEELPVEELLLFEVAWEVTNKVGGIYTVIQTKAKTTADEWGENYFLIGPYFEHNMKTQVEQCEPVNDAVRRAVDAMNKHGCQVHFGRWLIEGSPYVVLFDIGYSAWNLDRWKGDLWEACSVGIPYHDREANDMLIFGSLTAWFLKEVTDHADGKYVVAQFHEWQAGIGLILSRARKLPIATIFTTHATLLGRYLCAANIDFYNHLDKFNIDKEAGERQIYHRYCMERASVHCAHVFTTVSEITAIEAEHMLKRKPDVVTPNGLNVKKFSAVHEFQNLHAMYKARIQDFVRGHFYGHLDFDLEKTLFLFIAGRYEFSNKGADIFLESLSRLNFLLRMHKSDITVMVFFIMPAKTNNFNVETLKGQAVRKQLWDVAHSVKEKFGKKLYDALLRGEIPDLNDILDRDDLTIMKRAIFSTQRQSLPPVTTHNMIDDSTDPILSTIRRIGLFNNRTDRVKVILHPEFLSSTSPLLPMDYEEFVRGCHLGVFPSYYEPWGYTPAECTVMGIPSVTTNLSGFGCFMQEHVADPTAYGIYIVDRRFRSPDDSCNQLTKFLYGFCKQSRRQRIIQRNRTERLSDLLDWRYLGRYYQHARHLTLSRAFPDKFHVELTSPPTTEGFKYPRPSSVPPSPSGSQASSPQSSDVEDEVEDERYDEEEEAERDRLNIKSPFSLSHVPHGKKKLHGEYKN
Chain of hGYS2 enzyme (recombinant hGYS2/GN1 protein) (P46976 whole entry partner): as the sequence (P46976 whole entry partner) above

For the molecule `O=C(N[C@@H](c1ccccc1)c1ccc(C2CC2)c(F)c1)[C@@H]1C[C@@H](F)CN1C(=O)CNC(=O)N1CCOCC1` [Compound 452, N-{2-[(2S,4R)-2-{[(S)-(4-cyclopropyl-3-fluorophenyl)(phenyl)methyl]carbamoyl}-4-fluoropyrrolidin-1-yl]-2-oxoethyl} morpholine-4-carboxamide], the IC50 in experiment [1] was 40 nM; in experiment [2] it was more than 100000 nM; in experiment [3] (Homo sapiens, HeLa, 24 h), 980 nM.
As for `O=C(N[C@@H](c1ccccc1)c1ccc(C2CC2)c(F)c1)[C@@H]1C[C@@H](F)CN1C(=O)Cc1n[nH]c(=O)[nH]1` [Compound 491, (2S,4R)-N-[(S)-(4-cyclopropyl-3-fluorophenyl)(phenyl)methyl]-4-fluoro-1-[2-(5-oxo-4,5-dihydro-1H-1,2,4-triazol-3-yl)acetyl]pyrrolidine-2-carboxamide], the IC50 was 93 nM in experiment [1]; more than 100000 nM in experiment [2]; 5550 nM in experiment [3] (Homo sapiens, HeLa, 24 h).
Consider `CC(C)c1ccc([C@@H](NC(=O)[C@@H]2C[C@@H](F)CN2C(=O)CNC(=O)N(C)C)c2ccccc2)nc1F` [Compound 394, (2S,4R)-1-{2-[(dimethylcarbamoyl)amino]acetyl}-4-fluoro-N-[(S)-[6-fluoro-5-(propan-2-yl)pyridin-2-yl](phenyl)methyl] pyrrolidine-2-carboxamide], for which the IC50 in experiment [1] was 7 nM; in experiment [2], more than 100000 nM; in experiment [3] (Homo sapiens, HeLa, 24 h) it was 150 nM.
In the case of `O=C(N[C@@H](c1ccccc1)c1ccc(C2CC(F)(F)C2)cn1)[C@@H]1C[C@@H](F)CN1C(=O)Cc1cnn[nH]1` [Compound 534, (2S,4R)-N-[(S)-[5-(3,3-difluorocyclobutyl)pyridin-2-yl](phenyl)methyl]-4-fluoro-1-[2-(1H-1,2,3-triazol-5-yl)acetyl]pyrrolidine-2-carboxamide], the IC50 in experiment [1] is 57 nM; in experiment [2] it was more than 100000 nM; in experiment [3] (Homo sapiens, HeLa, 24 h), 1280 nM.
For `Cc1nn(C)c(C)c1CC(=O)N1C[C@H](F)C[C@H]1C(=O)N[C@@H](c1ccccc1)c1ccc(C(C)C)c(F)c1` [Compound 351, (2S,4R)-4-fluoro-N-[(S)-[3-fluoro-4-(propan-2-yl)phenyl](phenyl)methyl]-1-[2-(1,3,5-trimethyl-1H-pyrazol-4-yl)acetyl]pyrrolidine-2-carboxamide], the IC50 in experiment [1] was 8 nM; in experiment [2], more than 100000 nM; in experiment [3] (Homo sapiens, HeLa, 24 h), 130 nM.
Regarding `CC(C)c1ccc([C@@H](NC(=O)[C@@H]2C[C@@H](F)CN2C(=O)Cc2[nH]nnc2C(F)(F)F)c2ccccc2)nc1F` [Compound 403, (2S,4R)-4-fluoro-N-[(S)-[6-fluoro-5-(propan-2-yl)pyridin-2-yl](phenyl)methyl]-l-{2-[4-(trifluoromethyl)-1H-1,2,3-triazol-5-yl]acetyl}pyrrolidine-2-carboxamide], the IC50 in experiment [1] was 4 nM; in experiment [2], more than 100000 nM; in experiment [3] (Homo sapiens, HeLa, 24 h) it was 140 nM.
The corresponding values for `CN(C)c1cn(CC(=O)N2C[C@H](F)C[C@H]2C(=O)N[C@@H](c2ccccc2)c2ccc(C3CC3)c(F)c2)nn1` [Compound 484, (2S,4R)-N-[(S)-(4-cyclopropyl-3-fluorophenyl)(phenyl)methyl]-1-{2-[4-(dimethylamino)-1H-1,2,3-triazol-1-yl]acetyl}-4-fluoropyrrolidine-2-carboxamide] are 66 nM, more than 100000 nM and 820 nM.
On to `Cc1cn(CC(=O)N2C[C@H](F)C[C@H]2C(=O)N[C@@H](c2ccccc2)c2ccc(C(C)C)c(F)c2)nn1` [Compound 373, (2S,4R)-4-fluoro-N-[(S)-[3-fluoro-4-(propan-2-yl)phenyl](phenyl)methyl]-1-[2-(4-methyl-1H-1,2,3-triazol-1-yl)acetyl]pyrrolidine-2-carboxamide], for which the IC50 was 14 nM in experiment [1]; more than 100000 nM in experiment [2]; 210 nM in experiment [3] (Homo sapiens, HeLa, 24 h).
In the case of `Cc1cc(C(NC(=O)[C@@H]2C[C@@H](F)CN2C(=O)Cc2cnn[nH]2)c2ccccc2)cc(F)c1C(C)C` (single isomer, unassigned) [Compound 680, (2S,4R)-4-fluoro-N-[(S) or (R)-[3-fluoro-5-methyl-4-(propan-2-yl)phenyl](phenyl)methyl]-1-[2-(1H-1,2,3-triazol-5-yl)acetyl]pyrrolidine-2-carboxamide], the figures for the IC50 in experiment [1], in experiment [2] and in experiment [3] were 15 nM, 93000 nM and 270 nM, respectively.
Take `O=C(N[C@@H](c1ccccc1)c1ccc(C2CC2)c(F)n1)[C@@H]1C[C@@H](F)CN1C(=O)Cn1ccc(=O)[nH]c1=O` [Compound 727, (2S,4R)-N-[(S)-(5-cyclopropyl-6-fluoropyridin-2-yl)(phenyl)methyl]-1-[2-(2,4-dioxo-1,2,3,4-tetrahydropyrimidin-1-yl)acetyl]-4-fluoropyrrolidine-2-carboxamide]: the IC50 in experiment [1] was 17 nM; in experiment [2], more than 100000 nM; in experiment [3] (Homo sapiens, HeLa, 24 h) it was 910 nM.
The corresponding values for `CNC(=O)NCC(=O)N1C[C@H](F)C[C@H]1C(=O)N[C@@H](c1ccccc1)c1ccc(C(C)C)c(F)n1` [Compound 395, (2S,4R)-4-fluoro-N-[(S)-[6-fluoro-5-(propan-2-yl)pyridin-2-yl](phenyl)methyl]-1-{2-[(methylcarbamoyl)amino]acetyl}pyrrolidine-2-carboxamide] are 8 nM, more than 100000 nM and 240 nM.
Take `Cc1cnc(CC(=O)N2C[C@H](F)C[C@H]2C(=O)N[C@@H](c2ccccc2)c2ccc(C(C)C)c(F)n2)o1` [Compound 408, (2S,4R)-4-fluoro-N-[(S)-[6-fluoro-5-(propan-2-yl)pyridin-2-yl](phenyl)methyl]-1-[2-(5-methyl-1,3-oxazol-2-yl)acetyl] pyrrolidine-2-carboxamide]: the IC50 was 8 nM in experiment [1]; more than 100000 nM in experiment [2]; 350 nM in experiment [3] (Homo sapiens, HeLa, 24 h).
The corresponding values for `CC(C)c1ccc([C@@H](NC(=O)[C@@H]2C[C@@H](F)CN2C(=O)Cc2nnc(C(F)F)o2)c2ccccc2)nc1` [Compound 253, (2S,4R)-1-{2-[5-(difluoromethyl)-1,3,4-oxadiazol-2-yl]acetyl}-4-flouro-N-[(S)-phenyl[5-(propan-2-yl)pyridin-2-yl]methyl]pyrrolidine-2-carboxamide] are 67 nM, more than 100000 nM and 1090 nM.
As to `Cc1cn(CC(=O)N2C[C@H](F)C[C@H]2C(=O)N[C@@H](c2ccccc2)c2ccc(C(C)C)cc2)c(=O)[nH]c1=O` [Compound 126, (2S,4R)-4-fluoro-1-[2-(5-methyl-2,4-dioxo-1,2,3,4-tetrahydropyrimidin-1-yl)acetyl]-N-[(S)-phenyl[4-(propan-2-yl)phenyl]methyl]pyrrolidine-2-carboxamide], the IC50 in experiment [1] is 11 nM; in experiment [2], more than 100000 nM; in experiment [3] (Homo sapiens, HeLa, 24 h), 170 nM.
For the molecule `CC(C)c1ccc([C@@H](NC(=O)[C@@H]2C[C@@H](F)CN2C(=O)Cc2n[nH]c(=O)[nH]2)c2ccccc2)nc1` [Compound 284, (2S,4R)-4-fluoro-1-[2-(5-oxo-4,5-dihydro-1H-1,2,4-triazol-3-yl)acetyl]-N-[(S)-phenyl[5-(propan-2-yl)pyridin-2-yl]methyl]pyrrolidine-2-carboxamide], the IC50 in experiment [1] was 90 nM; in experiment [2], more than 100000 nM; in experiment [3] (Homo sapiens, HeLa, 24 h), 5190 nM.
As for `CC1(c2ccc([C@@H](NC(=O)[C@@H]3C[C@@H](F)CN3C(=O)CC3C(=O)Nc4ccccc43)c3ccccc3)cc2F)CC1` (stereo partly drawn) [Compound 581, (2S,4R)-4-fluoro-N-[(S)-[3-fluoro-4-(1-methylcyclopropyl)phenyl](phenyl)methyl]-1-[2-(2-oxo-2,3-dihydro-1H-indol-3-yl)acetyl]pyrrolidine-2-carboxamide], the IC50 in experiment [1] was 269 nM; in experiment [2], more than 100000 nM; in experiment [3] (Homo sapiens, HeLa, 24 h) it was 3920 nM.
`CC(C)c1ccc([C@@H](NC(=O)[C@@H]2C[C@@H](F)CN2C(=O)CNC(=O)N2CCN(CC3CC3)CC2)c2ccccc2)nc1` [Compound 282, 4-(cyclopropylmethyl)-N-{2-[(2S,4R)-4-fluoro-2-{[(S)-phenyl[5-(propan-2-yl)pyridin-2-yl]methyl]carbamoyl}pyrrolidin-1-yl]-2-oxoethyl}piperazine-1-carboxamide]: the IC50 was 49 nM in experiment [1]; more than 100000 nM in experiment [2]; 4180 nM in experiment [3] (Homo sapiens, HeLa, 24 h).
As to `CC(C)c1ccc([C@@H](NC(=O)[C@@H]2C[C@@H](F)CN2C(=O)Cc2ccncc2)c2ccccc2)cc1F` [Compound 347, (2S,4R)-4-fluoro-N-[(S)-[3-fluoro-4-(propan-2-yl)phenyl](phenyl)methyl]-1-[2-(pyridin-4-yl)acetyl]pyrrolidine-2-carboxamide], the IC50 in experiment [1] was 30 nM; in experiment [2] it was more than 100000 nM; in experiment [3] (Homo sapiens, HeLa, 24 h) it was 400 nM.
For `CC(C)c1ccc([C@@H](NC(=O)[C@@H]2C[C@@H](F)CN2C(=O)Cn2cnnc2)c2ccccc2)cc1` [Compound 202, (2S,4R)-4-fluoro-N-[(S)-phenyl[4-(propan-2-yl)phenyl]methyl]-1-[2-(4H-1,2,4-triazol-4-yl)acetyl]pyrrolidine-2-carboxamide], the IC50 in experiment [1] was 71 nM; in experiment [2] it was more than 100000 nM; in experiment [3] (Homo sapiens, HeLa, 24 h), 1860 nM.
